# Tested on: human coagulation factor XI protein
# Test: In vivo activity in human coagulation factor XI model mice (Experimental Example 3), plasma FXI protein by ELISA
# Conditions: humanized mice
# Protocol: The humanized mice used in this experimental example were purchased from Cyagen Biosciences Co., Ltd. The humanized mice were randomly divided into groups, with 4 mice per group. The compound and PBS control (pH = 7.2) were administered to each group of mice, respectively. The day of the first administration was designated as day 0 of the experiment. The corresponding compound solutions were administered via a single subcutaneous injection based on animal body weight, at administration doses of 1 mg/kg and 5 mg/kg. PBS control mice were each administered PBS, with an administration volume of 10 mL/kg body weight. Orbital blood was collected before administration and on day 7, day 14, day 28, day 42, and day 63 after administration. Plasma was separated, and the content of the coagulation factor XI protein in the plasma was measured at each time point.
# About 165 µL of blood was collected from the orbital veins for plasma collection. A 3.8% trisodium citrate anticoagulant was added to the whole blood in a volume ratio of 1:9 (anticoagulant:[…], v/v), and the mixture was centrifuged at 3000 rpm at 20 °C for 15 min to collect plasma. The content of the coagulation factor XI protein in the plasma obtained from the above groups of mice (test groups administered the compound and PBS control group) was measured using a Human Coagulation Factor XI ELISA kit (Sigma, Cat. No. RAB1385-1KT).
# The coagulation factor XI protein inhibition rate was calculated according to the following equation: [formula]
# Table 11 lists the measurement of FXI protein content in animal plasma before and on day 7, day 14, day 28, day 42, and day 63 after a single subcutaneous administration of siRNA ligand conjugates (TD01M01L01, TD02M01L01) at doses of 1 mg/kg and 5 mg/kg to humanized homozygous mice. […] Table 11. In vivo experimental design
substance,measurement,setting,value
"TD02M02L01: dsRNA ligand conjugate: TD02M02 with L01 (GalNAc) ligand at 3' end of sense strand SEQ ID NO 35; antisense SEQ ID NO 36 (sense GGATGATTTTCTTATATCA; antisense TGATATAAGAAAATCATCCTG; GalNAc L01 ligand at sense 3' end, 2'-OMe/2'-F, pattern not given here)",Relative inhibition rate (%) of FXI protein,"single subcutaneous 1 mg/kg, D7",66.7%
same,Relative inhibition rate (%) of FXI protein,"single subcutaneous 1 mg/kg, D14",70.2%
same,Relative inhibition rate (%) of FXI protein,"single subcutaneous 1 mg/kg, D28",58.6%
same,Relative inhibition rate (%) of FXI protein,"single subcutaneous 1 mg/kg, D42",70.5%
same,Relative inhibition rate (%) of FXI protein,"single subcutaneous 1 mg/kg, D63",47.0%
same,Relative inhibition rate (%) of FXI protein,"single subcutaneous 5 mg/kg, D7",91.5%
same,Relative inhibition rate (%) of FXI protein,"single subcutaneous 5 mg/kg, D14",93.5%
same,Relative inhibition rate (%) of FXI protein,"single subcutaneous 5 mg/kg, D28",88.4%
same,Relative inhibition rate (%) of FXI protein,"single subcutaneous 5 mg/kg, D42",86.9%
same,Relative inhibition rate (%) of FXI protein,"single subcutaneous 5 mg/kg, D63",66.3%

# From EP4772634A1, “DOUBLE-STRANDED RNA TARGETING COAGULATION FACTOR XI” (Chia Tai Tianqing Pharmaceutical Group Co., Ltd., priority 2023, dated 2025)
